This series is described as follows: Solubility of benzocaine in ethyl alcohol with and without menthol. In kind it is physicochemical. From the text:
While not wishing to be bound to any theory, it appears that, in embodiments containing the medicament, for example benzocaine, menthol improves the clarity of the composition by increasing the solubility of medicament in the gel composition. This belief is based on the observation that the solubility of benzocaine in ethyl alcohol containing menthol is higher than the solubility of benzocaine in ethyl alcohol without menthol. It is believed that menthol can enhance the interaction between polymethacrylate, such as Eudragit™ RS, and a medicament, such as benzocaine. This belief is based on an interaction study conducted with a Differential Scanning Calorimeter (DSC). Further, while not wishing to be bound to any theory, it appears that one or both of the polymers may be forming a complex with the medicament drug in the presence of menthol and enhancing the clarity of the composition.

Each structure is given as a SMILES string.

Consider `CCOC(=O)c1ccc(N)cc1` [benzocaine], for which the “solubility of benzocaine in ethyl alcohol containing menthol versus without menthol” value was “higher”.

The record behind these values is US20040028744A1, “Mucoadhesive composition” (priority 2002, published 2004).
